System: M. tuberculosis

SMILES: CCOC(=O)CSc1nc(N)c2c3c(sc2n1)CC(C(C)(C)C)CC3 (stereo not shown) [CD117]
- CD117-resistant mutants obtained: unable to obtain CD117-resistant mutants

From article PMC4527344 (Tetrahedron letters, 2015)
